For the experiment, the target named is T1, AR-R840C (Homo sapiens, UniProt P10275, R841C).
T1 construct: expressed in transfected cells
T1 sequence (P10275 1-920 R841C): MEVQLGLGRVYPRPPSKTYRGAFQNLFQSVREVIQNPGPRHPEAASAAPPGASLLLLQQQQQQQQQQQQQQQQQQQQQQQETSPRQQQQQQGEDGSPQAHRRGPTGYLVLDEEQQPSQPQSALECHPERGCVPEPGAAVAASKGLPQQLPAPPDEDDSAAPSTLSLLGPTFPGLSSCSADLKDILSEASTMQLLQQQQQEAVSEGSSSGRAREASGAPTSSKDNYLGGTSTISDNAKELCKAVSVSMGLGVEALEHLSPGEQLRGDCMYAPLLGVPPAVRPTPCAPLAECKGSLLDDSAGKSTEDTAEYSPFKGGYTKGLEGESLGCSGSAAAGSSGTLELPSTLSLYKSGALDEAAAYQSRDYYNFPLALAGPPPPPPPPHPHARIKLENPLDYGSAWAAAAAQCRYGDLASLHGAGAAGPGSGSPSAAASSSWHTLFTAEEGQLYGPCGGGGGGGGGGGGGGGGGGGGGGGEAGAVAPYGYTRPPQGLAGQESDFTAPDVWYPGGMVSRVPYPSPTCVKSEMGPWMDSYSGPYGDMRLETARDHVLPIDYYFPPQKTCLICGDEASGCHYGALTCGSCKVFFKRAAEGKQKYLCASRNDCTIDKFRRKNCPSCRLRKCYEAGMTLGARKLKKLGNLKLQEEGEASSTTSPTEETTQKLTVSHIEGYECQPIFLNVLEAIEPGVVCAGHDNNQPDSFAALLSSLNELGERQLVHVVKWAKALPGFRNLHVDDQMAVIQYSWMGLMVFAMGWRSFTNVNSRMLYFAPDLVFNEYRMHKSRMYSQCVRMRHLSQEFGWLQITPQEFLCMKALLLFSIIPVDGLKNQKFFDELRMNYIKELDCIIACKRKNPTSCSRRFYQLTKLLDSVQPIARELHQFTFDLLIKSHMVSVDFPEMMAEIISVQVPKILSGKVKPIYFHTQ
It is filed as cell-based. The procedure:
To determine the global effect of the various AIS mutations on AR signaling, each was analyzed using HCA. This technology allows simultaneous quantification of AR protein expression, nuclear translocation, subnuclear patterning, and transcriptional activity. The analysis was done in HeLa cell lines stably transfected with wild type or mutant ARs fused with green fluorescent protein, or using AR immunofluorescence in primary cultures of genital skin fibroblasts generated from foreskin biopsies of historical AIS patients, or of normal neonates undergoing circumcision at birth. To prevent the effects of receptor over-expression, stable HeLa cells were carefully selected to express AR levels similar to LNCaP as previously described. Prior to ligand treatment, HeLa cells were transfected with the pARR2PB-dsRED2skl reporter plasmid, consisting of the AR responsive promoter ARR2PB [31] driving expression of the red fluorescent protein reporter dsRED2skl engineered to target peroxisomes.
For studies utilizing HeLa GFP-AR cell lines, twenty-four hours before transfection with pARR2PB-dsRED2skl, cells were plated onto 100 mm plastic dishes in medium supplemented with 5% charcoal-stripped and dialyzed-FBS. Transient introduction of the pARR-2PB-dsRED2skl reporter construct was performed using 6.0 µg reporter plasmid and 6.0 µg carrier DNA (BlueScript, Stratagene, San Diego, CA) using Transfectin (Biorad) following standard protocols. After 8-hour incubation, DNA/lipid complexes were removed. Cells were then trypsinized and replated at 10,000 cells per well in Nunc poly-D-lysine treated 96-well optical glass bottom plates and incubated an additional 12 hours to allow for cell adhesion. […] Compound dilutions and final addition to multi-well plates were performed using a Beckman Biomek NX robotic platform to ensure repeatability from experiment to experiment. After incubation was complete, using the Biomek NX robot, plates were washed with PBS and fixed for 20 min at RT in 4% formaldehyde prepared in CSK buffer (80 mM potassium PIPES, pH 6.8, 5 mM EGTA, 2 mM MgCl2). After fixation, cells were briefly permeabilized (5 min) with 0.5% Triton-X and prepared for imaging by washing in PBS, aspirating the washed solution, and adding a 1 ng/ml DAPI solution to stain DNA and a generic protein stain (CellMask, Invitrogen) to facilitate cell and nuclear image segmentation. Cells were imaged in PBS.
Cells were imaged using the Cell Lab IC-100 Image Cytometer (IC-100; Beckman Coulter) platform that consists of 1) Nikon Eclipse TE2000-U Inverted Microscope (Nikon; Melville, NY); 2) Chroma 82000 triple band filter set (Chroma; Brattleboro, VT); 3) an imaging camera: Hamamatsu ORCA-ER Digital CCD camera (Hamamatsu; Bridgewater, NJ); and 4) a focusing camera: Photonics COHU Progressive scan camera (Photonics; Oxford, MA). […] In general, 49 to 64 images were captured per well for image analysis.
While our initial AR studies using HTM were based upon CytoShop (Beckman-Coulter), [15], [33], these approaches were refined in the current work with the more robust server-client Pipeline Pilot image analysis platform (Basic and Advanced Imagine Collections, Pipeline Pilot 7.5, Accelrys, San Diego). Initially, the background signal was removed from all images using plate- and channel-specific correction images, generated by the sum projection of >600 randomly selected images for each channel from the image set. This allows for a pixel-by-pixel background subtraction that compensates any consistent uneven background artifacts in the image set. Furthermore, users are able to customize the degree of background subtraction by applying a multiplier to each correction image, useful for identification of objects such as nuclei or cell borders. After background subtraction, nuclear masks were generated using a combination of non-linear least squares and watershed-from-markers image manipulations of the DAPI images (Fig. 1B).

Structures are written as SMILES.

As to `C[C@@H]1CC2=CC(=O)CC[C@@H]2[C@H]2CC[C@@]3(C)[C@@H](CC[C@]3(C)O)[C@@H]21` [Mb, Mibolerone], where the note is “HeLa AR-R840C”, the hyperspeckling was 8 fold increase and the transcriptional activation is given as 11 fold. Also, the “increase in nuclear translocation” value (HeLa AR-R840C, vs untreated) is recorded as 29%. The “Nuclear Translocation, Max” value (HeLa R840C, % signal present in the nucleus) was determined as 63.7±1.1%. In addition, the “Hyperspeckling, Max” value (HeLa R840C, absolute numerical measurement) stood at 269±20. Where the note is “HeLa R840C, pARR2PB-dsRED2skl reporter, absolute numerical measurement”, the “Transcriptional Activity, Max” value is reported as 35.3±1.4.

These data come from PMC2785468, “Androgen Receptor Mutations Associated with Androgen Insensitivity Syndrome: A High Content Analysis Approach Leading to Personalized Medicine” (PLoS ONE, 2009).
